PMC11374673, “Discovery of isoquinoline sulfonamides as allosteric gyrase inhibitors with activity against fluoroquinolone-resistant bacteria” (Nature Chemistry, 2024)
Values after ≈ are worked out from the molar mass of the structure shown. Values joined by “and” are separate entries in the source; they are usually repeats but may differ in a detail not shown here. Equal entries are not always repeated. Where two headings read alike, the source gives them in different places.

Tests used:
[1] = system: E. coli W3110; test: MIC by broth microdilution; assay type: cell-based, Escherichia coli; details: for antimicrobial activity: relative to parent compound
Summary of the method: (§1)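 Broth microdilution in CAMHB: twofold compound series inoculated with 100-fold-diluted bacteria from exponential growth (OD600 0.5, 37 °C); kanamycin 50 µg ml^−1 added for Keio collection strains. Overnight incubation, 37 °C, 600 r.p.m. shaking.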

[2] = system: K. pneumoniae ATCC 29665; test: MIC by broth microdilution; assay type: cell-based, Klebsiella pneumoniae
Summary of the method: as §1

[3] = system: A. baumannii ATCC BAA747; test: MIC by broth microdilution; assay type: cell-based
Experimental: (§2) MIC was determined by broth microdilution. Single-colony cultures were grown to exponential phase (OD600 of 0.5) aerobically at 37 °C. In case of strains from the Keio collection, 50 µg ml^−1 kanamycin was supplemented to the media to ascertain a homogeneous population. The bacterial suspensions were diluted 100-fold in CAMHB and 50 µl was added to a twofold serial dilution series of test compounds (50 µl per well) in polypropylene 96-well microtitre plates to reach a volume of 100 µl. The plates were sealed with breathable membranes and incubated overnight at 37 °C with constant shaking (600 r.p.m.). The MIC was determined as the lowest concentration at which no visible bacterial growth was observed as compared with the inoculum controls from the median of a minimum of triplicates.

[4] = system: P. aeruginosa ATCC 27853; test: MIC by broth microdilution; assay type: cell-based
Experimental: as §2

[5] = system: S. aureus ATCC 29213 / ATCC BAA1717; test: MIC by broth microdilution; assay type: cell-based
Experimental: as §2

[6] = system: E. coli BW25113 and single-gene knockouts; test: MIC on E. coli strains of the Keio collection; assay type: cell-based, Escherichia coli; details: for MIC: Escherichia coli
Experimental: as §2

[7] = system: clinical isolates of E. coli; test: MIC against clinical isolates and potentiation by 4 µM PMBN; assay type: cell-based, Escherichia coli; details: for MSC: with 4 µM PMBN; for MIC: Escherichia coli
Experimental: as §2, with “r.p.m.).” for “r.p.m.). The MIC was determined as the lowest concentration at which no visible bacterial growth was observed as compared with the inoculum controls from the median of a minimum of triplicates.”

[8] = system: 60-resistant (60-r) isolates of E. coli W3110; test: microbe, parasite or virus in culture; assay type: cell-based, Escherichia coli; details: for MIC: Escherichia coli
Experimental: as §2
The plates were incubated at 37 °C and checked for growth after 24 and 48 h. […] Nine colonies with an increased MIC were selected for further analysis and stored as glycerol stocks.

[9] = system: E. coli W3110 gyrA S97L, S83L, D87N; test: MIC against CRISPR/Cas9 gyrA point mutants; assay type: cell-based, Escherichia coli; details: for MIC: Escherichia coli
Experimental: as §2
Mutants of the DNA gyrase subunit A encoding gene (gyrA) were constructed following the protocol for gene editing via the CRISPR–Cas9 system. Strains and plasmids used are listed in Supplementary Table 15, and primers used can be found in Supplementary Table 16. The following mutations were created: S97L in E. coli W3110. Two common mutations in the gyrA gene that give resistance to fluoroquinolone antibiotics were created in E. coli W3110, namely S83L and D87N. To create the gyrA (S97L) mutants, the construct psgRNA-gyrA-M5 was assembled as follows: The 20-nt spacer sequence was introduced by PCR on pTargetF using primers gyrA_P11 and gyrA_P12, the homology-directed repair (HDR) arms were amplified from E. coli W3110 genomic DNA by PCR using primer pairs gyrA_P05 and gyrA_P013, and gyrA_P08 and gyrA_P14. The three PCR fragments generated were cloned into the SpeI and BglII digested pTargetF via Gibson assembly. To avoid off-target effects of CRISPR, besides desired point mutation for gyrA (S97L), four other silent point mutations were also included in the HDR template. Consequently, the amino acid sequence of gyrA will remain the same in the generated mutant except for the desired mutation. Similarly, constructs psgRNA-gyrA-S83L and psgRNA-gyrA-D87N were created to introduce mutations S83L and D87N in gyrA, respectively. In psgRNA-gyrA-S83L, spacer sequence was introduced using primers gyrA_P12 and gyrA_P17, HDR template was amplified using primer pairs gyrA_P05 and gyrA_P18, and gyrA_P08 and gyrA_P19. In psgRNA-gyrA-D87N, spacer sequence was introduced using primers gyrA_P12 and gyrA_P20, HDR template was amplified using primer pairs gyrA_P05 and gyrA_P21, and gyrA_P08 and gyrA_P22. The verified constructs for gyrA engineering were transformed into E. coli W3110 carrying pCas9, and plated in LB containing kanamycin (50 µg ml^−1) for the selection of the pCas9 plasmid and spectinomycin (100 µg ml^−1) for the selection of psgRNA-gyrA-X. The plates were incubated at 30 °C. Plasmids were cured by growing the strains with 0.5 mM isopropylthiogalactoside with no antibiotics to lose first the psgRNA-gyrA plasmids. After losing the spectinomycin resistance, the strain was grown in LB with no antibiotics at 42 °C to lose the pCas plasmid. Colony PCR was performed on plasmid-free colonies using primers gyrA_P9 and gyrA_P10, and PCR products were sequenced to confirm the desired mutation

[10] = Klebsiella pneumoniae, ATCC29665, broth microdilution, read-out: MIC K. pneumoniae ATCC 29665
[11] = Klebsiella pneumoniae, ATCC29665, read-out: MIC K. pneumoniae ATCC 29665
[12] = BW25113, read-out: MIC E. coli BW25113, parent strain
[13] = E. coli W3110 gyrA D87N (FQ-resistant 2)
[14] = E. coli W3110 gyrA S83L (FQ-resistant 1)
[15] = E. coli W3110 gyrA S97L (LEI-800-resistant)
[16] = BW25113, JW3596 ΔrfaC, LPS disruption (genetic)

## O=S(=O)(NCCNCc1ccc(-c2ccc(F)nc2)cc1)c1cccc2cnccc12 [Compound 60]
[1]; Escherichia coli, W3110, read-out: MIC E. coli W3110
  MIC: 6.25 µM
[2]; [10]
  MIC: 25 µM (≈ 10.9 µg/mL)
[2]; [11]
  MIC: 6.25 µM (≈ 2.73 µg/mL)
[3]; Acinetobacter baumannii, ATCCBAA747; read-out: MIC A. baumannii ATCC BAA747
  MIC: > 50 µM
[4]; Pseudomonas aeruginosa, ATCC27853; read-out: MIC P. aeruginosa ATCC 27853
  MIC: > 50 µM
[5]; Staphylococcus aureus; read-out: MIC S. aureus ATCC 29213
  MIC: > 50 µM
[5]; Staphylococcus aureus; read-out: MIC S. aureus ATCC BAA1717
  MIC: > 50 µM
[6]; [12]
  MIC: 6.25 µM (≈ 2.73 µg/mL)
[7]; E. coli 1075, fold change in MIC after 4 µM PMBN
  FC: > 2
[7]; E. coli 1075
  MSC: 25 µM
[7]; E. coli 552059.1, fold change in MIC after 4 µM PMBN
  FC: 16
[7]; E. coli 552059.1
  MSC: 3.1 µM
[7]; E. coli 552060.1, fold change in MIC after 4 µM PMBN
  FC: 16
[7]; E. coli 552060.1
  MSC: 3.1 µM
[7]; E. coli MVAST0072, fold change in MIC after 4 µM PMBN
  FC: 16
[7]; E. coli MVAST0072
  MSC: 3.1 µM
[7]; E. coli NCTC13463, fold change in MIC after 4 µM PMBN
  FC: 8
[7]; E. coli NCTC13463
  MSC: 1.6 µM
[7]; E. coli NCTC13846, fold change in MIC after 4 µM PMBN
  FC: > 2
[7]; E. coli NCTC13846
  MSC: 25 µM
[7]; E. coli mcr-1, fold change in MIC after addition of 4 µM PMBN
  FC: 4
[7]; E. coli mcr-1
  MSC: 12.5 µM
[7]; E. coli 1075 (MDR), read-out: MIC
  MIC: > 50 µM
[7]; E. coli 552059.1, read-out: MIC
  MIC: 50 µM
[7]; E. coli 552060.1, read-out: MIC
  MIC: 50 µM
[7]; E. coli MVAST0072 (MDR), read-out: MIC
  MIC: 50 µM
[7]; E. coli mcr-1 (MCR)
  MIC: 50 µM
[7]; NCTC13463, E. coli NCTC13463 (ESBL), read-out: MIC
  MIC: 12.5 µM
[7]; NCTC13846, E. coli NCTC13846 (MDR, mcr-1)
  MIC: > 50 µM
[8]; E. coli W3110 60-r1
  MIC: > 100 µM
[8]; E. coli W3110 60-r3
  MIC: 100 µM (≈ 43.7 µg/mL)
[8]; E. coli W3110 60-r6
  MIC: > 100 µM
[8]; all nine colonies
  increase in MIC in resistant colonies: at least an eightfold increase in MIC
[9]; CRISPR–Cas9 S97L
  susceptibility of gyrA S97L mutant: resistant
[9]; [13]
  MIC: 50 µM (≈ 21.8 µg/mL)
[9]; [14]
  MIC: 25 µM (≈ 10.9 µg/mL)
[9]; [15]
  MIC: > 50 µM

## O=C(O)c1cn(C2CC2)c2cc(N3CCNCC3)c(F)cc2c1=O [CIP, ciprofloxacin]
[1]; Escherichia coli, W3110
  MIC: 7.8 ng/mL
[1]; Escherichia coli, W3110, read-out: MIC E. coli WT strain
  MIC: 0.024 µM
[2]; [11]
  MIC: 0.012 µM (≈ 0.00398 µg/mL)
[3]; Acinetobacter baumannii, ATCCBAA747, read-out: MIC A. baumannii ATCC BAA747
  MIC: 0.755 µM (≈ 0.25 µg/mL)
[4]; Pseudomonas aeruginosa, ATCC27853, read-out: MIC P. aeruginosa ATCC 27853
  MIC: 0.377 µM (≈ 0.125 µg/mL)
[5]; Staphylococcus aureus, read-out: MIC S. aureus ATCC 29213
  MIC: 0.755 µM (≈ 0.25 µg/mL)
[5]; Staphylococcus aureus, read-out: MIC S. aureus ATCC BAA1717
  MIC: > 0.755 µM
[6]; BW25113, JW3594 ΔrfaD
  MIC: > 0.048 µM
[6]; [16]
  MIC: 0.024 µM (≈ 0.00795 µg/mL)
[6]; BW25113, JW3600 ΔrfaY
  MIC: 0.024 µM (≈ 0.00795 µg/mL)
[6]; BW25113, JW3602 ΔrfaI
  MIC: 0.024 µM (≈ 0.00795 µg/mL)
[6]; BW25113, JW3605 ΔrfaP
  MIC: 0.048 µM (≈ 0.0159 µg/mL)
[6]; BW25113, JW5503 ΔTolC
  MIC: 0.024 µM (≈ 0.00795 µg/mL)
[6]; [12]
  MIC: 0.024 µM (≈ 0.00795 µg/mL)
[8]; E. coli W3110 60-r1
  MIC: 0.024 µM and 0.0078 µg/mL
[8]; E. coli W3110 60-r3
  MIC: 0.024 µM and 0.0078 µg/mL
[8]; E. coli W3110 60-r6
  MIC: 0.024 µM and 0.0078 µg/mL
[9]; [13]
  MIC: > 1.5 µM
[9]; [14]
  MIC: > 1.5 µM
[9]; [15]
  MIC: 0.024 µM (≈ 0.00795 µg/mL)

## O=S(=O)(NC[C@H]1CC[C@@H](c2ccc(-c3ccc(F)nc3)cc2)N1)c1cccc2cnccc12 [LEI-801]
[1]; Escherichia coli, W3110, WT, broth microdilution, read-out: MIC E. coli W3110
  MIC: > 50 µM
[1]; WT, broth microdilution, listed as LEI-801 (99), read-out: MIC E. coli W3110
  MIC: > 50 µM
[1]; listed as 99
  antimicrobial activity: completely inactive
[1]; listed as 99 (LEI-801)
  antimicrobial activity: inactive
[2]; [10]
  MIC: > 50 µM
[2]; broth microdilution, listed as LEI-801 (99), read-out: MIC K. pneumoniae ATCC 29665
  MIC: > 50 µM
[6]
  potency against ΔtolC efflux pump mutant: No increase in potency
[6]; BW25113, JW3594 ΔrfaD
  MIC: 3.1 µM (≈ 1.43 µg/mL)
[6]; [16]
  MIC: 3.1 µM (≈ 1.43 µg/mL)
[6]; BW25113, JW3600 ΔrfaY
  MIC: > 50 µM
[6]; BW25113, JW3602 ΔrfaI
  MIC: > 50 µM
[6]; BW25113, JW3605 ΔrfaP
  MIC: 12.5 µM (≈ 5.78 µg/mL)
[6]; BW25113, JW5503 ΔTolC
  MIC: > 50 µM
[6]; [12]
  MIC: > 50 µM
